The values below come from ChEMBL document CHEMBL1158659, “The alkaloids of Delphinium cashmirianum” (J Nat Prod, 1979).

SMILES strings stand for the structures.

Assay type in all cases: functional
The test system of test [1] is Oryctolagus cuniculus. The test can be described thus: Cardiovascular activity in Albino rabbit assessed as change in heart rate tested at basal heart rate of 180 beats/min at 0.25 mg/kg, iv by physiograph 4.
For test [2], the system named is Oryctolagus cuniculus. The test can be described thus: Cardiovascular activity in Albino rabbit assessed as change in heart rate tested at basal heart rate of 180 beats/min at 0.50 mg/kg, iv by physiograph 4. Conditions: dose 0.5 mg/kg.
For test [3], the system named is Oryctolagus cuniculus. Briefly: Cardiovascular activity in Albino rabbit assessed as change in heart rate tested at basal heart rate of 180 beats/min at 1.0 mg/kg, iv by physiograph 4.
Test [4] has as its system Oryctolagus cuniculus. The test can be described thus: Cardiovascular activity in Albino rabbit assessed as change in heart rate tested at basal heart rate of 178 beats/min at 0.50 mg/kg, iv by physiograph 4. Conditions: dose 0.5 mg/kg.
Test [5] concerns Oryctolagus cuniculus. Briefly: Cardiovascular activity in Albino rabbit assessed as change in heart rate tested at basal heart rate of 178 beats/min at 1.0 mg/kg, iv by physiograph 4.
The subject of test [6] is Oryctolagus cuniculus. Briefly: Cardiovascular activity in Albino rabbit assessed as sinusoidal heart rate tested at basal heart rate of 180 beats/min at 0.05 mg/kg, iv by physiograph 4.
The subject of test [7] is Oryctolagus cuniculus. The test can be described thus: Cardiovascular activity in Albino rabbit assessed as change in heart rate tested at basal heart rate of 180 beats/min at 0.10 mg/kg, iv by physiograph 4. Conditions: dose 0.1 mg/kg.
For test [8], the system named is Oryctolagus cuniculus. The test can be described thus: Cardiovascular activity in Albino rabbit assessed as change in heart rate tested at basal heart rate of 185 beats/min at 0.10 mg/kg, iv by physiograph 4. Conditions: dose 0.1 mg/kg.
Test [9] concerns Oryctolagus cuniculus. The test can be described thus: Cardiovascular activity in Albino rabbit assessed as change in heart rate tested at basal heart rate of 185 beats/min at 0.25 mg/kg, iv by physiograph 4.
For test [10], the system named is Oryctolagus cuniculus. The test can be described thus: Cardiovascular activity in Albino rabbit assessed as change in heart rate tested at basal heart rate of 185 beats/min at 0.50 mg/kg, iv by physiograph 4. Conditions: dose 0.5 mg/kg.
The test system of test [11] is Oryctolagus cuniculus. The test can be described thus: Cardiovascular activity in Albino rabbit assessed as change in heart rate tested at basal heart rate of 185 beats/min at 1.0 mg/kg, iv by physiograph 4.
The test system of test [12] is Oryctolagus cuniculus. Briefly: Cardiovascular activity in Albino rabbit assessed as change in heart rate tested at basal heart rate of 185 beats/min at 5.0 mg/kg, iv by physiograph 4.
Test [13] concerns Oryctolagus cuniculus. The test can be described thus: Cardiovascular activity in Albino rabbit assessed as change in heart rate tested at basal heart rate of 195 beats/min at 0.10 mg/kg, iv by physiograph 4. Conditions: dose 0.1 mg/kg.
The subject of test [14] is Oryctolagus cuniculus. The test can be described thus: Cardiovascular activity in Albino rabbit assessed as change in heart rate tested at basal heart rate of 195 beats/min at 0.25 mg/kg, iv by physiograph 4.
Test [15] concerns Oryctolagus cuniculus. Briefly: Cardiovascular activity in Albino rabbit assessed as change in heart rate tested at basal heart rate of 195 beats/min at 0.50 mg/kg, iv by physiograph 4. Conditions: dose 0.5 mg/kg.
The subject of test [16] is Oryctolagus cuniculus. The test can be described thus: Cardiovascular activity in Albino rabbit assessed as change in heart rate tested at basal heart rate of 195 beats/min at 1.0 mg/kg, iv by physiograph 4.
Test [17] relates to Oryctolagus cuniculus. The test can be described thus: Cardiovascular activity in Albino rabbit assessed as change in heart rate tested at basal heart rate of 200 beats/min at 0.10 mg/kg, iv by physiograph 4. Conditions: dose 0.1 mg/kg.
The subject of test [18] is Oryctolagus cuniculus. Briefly: Cardiovascular activity in Albino rabbit assessed as change in heart rate tested at basal heart rate of 200 beats/min at 0.25 mg/kg, iv by physiograph 4.
In test [19] the test system is Oryctolagus cuniculus. Briefly: Cardiovascular activity in Albino rabbit assessed as change in heart rate tested at basal heart rate of 200 beats/min at 0.50 mg/kg, iv by physiograph 4. Conditions: dose 0.5 mg/kg.
Test [20] has as its system Oryctolagus cuniculus. The test can be described thus: Cardiovascular activity in Albino rabbit assessed as sinusoidal heart rate tested at basal heart rate of 200 beats/min at 0.05 mg/kg, iv by physiograph 4.
The subject of test [21] is Oryctolagus cuniculus. The test can be described thus: Cardiovascular activity in Albino rabbit assessed as sinusoidal heart rate tested at basal heart rate of 185 beats/min at 0.05 mg/kg, iv by physiograph 4.
The subject of test [22] is Oryctolagus cuniculus. The test can be described thus: Cardiovascular activity in Albino rabbit assessed as change in heart rate tested at basal heart rate of 200 beats/min at 1.0 mg/kg, iv by physiograph 4.

Turning to `CCN1C[C@]2(COC(=O)c3ccccc3NC(=O)CCC(=O)OC)CC[C@H](OC)[C@@]34[C@@H]5C[C@H]6[C@H](OC)[C@@H]5[C@](O)(C[C@@H]6OC)[C@](O)([C@@H](OC)[C@H]23)[C@@H]14` [CASHMIRADELPHINE], the Activity was -5 bpm in the test on Oryctolagus cuniculus [1]; -5 bpm in the test on Oryctolagus cuniculus [2]; -20 bpm in the test with Oryctolagus cuniculus [3]; -8 bpm with Oryctolagus cuniculus [4]; -10 bpm with Oryctolagus cuniculus [5]; -5 bpm in the test with Oryctolagus cuniculus [6]. Moreover, in the test with Oryctolagus cuniculus [7], the Activity came to 5 bpm.
For `CCN1C[C@]2(O)CC[C@H](OC)[C@@]34[C@@H]2C[C@H]([C@@H]13)[C@@]1(O)C[C@H](OC)[C@H]2C[C@@H]4[C@]1(O)[C@H]2OC` [LAPPACONINE], the Activity in the test with Oryctolagus cuniculus [8] is recorded as -5 bpm; in the test with Oryctolagus cuniculus [9], 0 bpm; in the test on Oryctolagus cuniculus [10], 0 bpm; in the test on Oryctolagus cuniculus [11], 0 bpm; with Oryctolagus cuniculus [12], 0 bpm.
Regarding `CCN1C[C@]2(COC(=O)c3ccccc3N3C(=O)CCC3=O)CC[C@H](OC)[C@]34C1[C@](O)([C@@H](OC)[C@H]23)[C@@]1(O)C[C@H](OC)[C@H]2C[C@@H]4[C@@H]1[C@H]2OC` [LYCACONITINE], the Activity in the test with Oryctolagus cuniculus [1] was 0 bpm; in the test with Oryctolagus cuniculus [2], -10 bpm; in the test with Oryctolagus cuniculus [13] it was 3 bpm; in the test on Oryctolagus cuniculus [14], 5 bpm; in the test with Oryctolagus cuniculus [15] it was 0 bpm; with Oryctolagus cuniculus [16], -5 bpm. Moreover, the Activity in the test with Oryctolagus cuniculus [7] was -10 bpm.
With `CCN1C[C@]2(C=O)CC[C@H](OC)[C@@]34[C@@H]5C[C@@H]6[C@@H](OC)C[C@@](O)(C5[C@H]6OC)[C@](O)([C@@H](OC)[C@H]23)[C@@H]14` [LYCOCTONAL], the Activity with Oryctolagus cuniculus [8] was -5 bpm; with Oryctolagus cuniculus [9] it was 0 bpm; with Oryctolagus cuniculus [10], 0 bpm; in the test with Oryctolagus cuniculus [11] it was 0 bpm; in the test on Oryctolagus cuniculus [12] it was -10 bpm; with Oryctolagus cuniculus [17], 0 bpm. The Activity in the test with Oryctolagus cuniculus [18] is 0 bpm; in the test on Oryctolagus cuniculus [19] it was 0 bpm; with Oryctolagus cuniculus [20] it was -3 bpm; with Oryctolagus cuniculus [21], 0 bpm.
For `CCN1C[C@]2(CO)CC[C@H](OC)[C@@]34[C@@H]5C[C@H]6[C@H](OC)[C@@H]5[C@](O)(C[C@@H]6OC)[C@](O)([C@@H](OC)[C@H]23)[C@@H]14` [LYCOCTONINE], the Activity is reported as -25 bpm with Oryctolagus cuniculus [8]; 0 bpm in the test on Oryctolagus cuniculus [10]; 5 bpm in the test with Oryctolagus cuniculus [17]; 5 bpm in the test on Oryctolagus cuniculus [18]; 0 bpm in the test with Oryctolagus cuniculus [19]; 0 bpm with Oryctolagus cuniculus [22].
